Target: CDC7/DBF4 (Cell division cycle 7-related protein kinase/Activator of S phase kinase) (Homo sapiens, UniProt O00311)
Test: Inhibition of CDC7/DBF4 using MCM-2 as substrate after 1 hr
Type: protein-complex assay

Sequence of CDC7/DBF4 (Cell division cycle 7-related protein kinase/Activator of S phase kinase) (Q9UBU7 whole entry): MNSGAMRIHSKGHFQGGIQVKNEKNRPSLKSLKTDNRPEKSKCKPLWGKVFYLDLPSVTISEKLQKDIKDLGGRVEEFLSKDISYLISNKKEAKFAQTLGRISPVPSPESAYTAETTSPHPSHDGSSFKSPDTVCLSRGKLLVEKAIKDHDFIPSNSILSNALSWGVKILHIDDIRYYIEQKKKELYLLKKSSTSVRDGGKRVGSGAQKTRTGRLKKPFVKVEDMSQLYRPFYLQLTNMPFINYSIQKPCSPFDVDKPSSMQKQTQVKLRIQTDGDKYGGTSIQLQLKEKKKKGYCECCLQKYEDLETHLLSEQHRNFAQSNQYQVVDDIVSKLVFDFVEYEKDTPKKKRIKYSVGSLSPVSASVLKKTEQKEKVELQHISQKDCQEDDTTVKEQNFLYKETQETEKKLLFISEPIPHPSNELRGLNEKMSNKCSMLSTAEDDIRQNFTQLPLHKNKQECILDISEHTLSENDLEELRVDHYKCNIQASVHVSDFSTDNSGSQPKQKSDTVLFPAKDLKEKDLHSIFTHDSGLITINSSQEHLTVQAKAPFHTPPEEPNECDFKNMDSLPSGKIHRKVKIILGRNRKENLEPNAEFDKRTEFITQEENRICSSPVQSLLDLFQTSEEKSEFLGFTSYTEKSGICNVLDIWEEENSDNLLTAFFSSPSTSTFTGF
Sequence of CDC7/DBF4 (Cell division cycle 7-related protein kinase/Activator of S phase kinase) (O00311 whole entry): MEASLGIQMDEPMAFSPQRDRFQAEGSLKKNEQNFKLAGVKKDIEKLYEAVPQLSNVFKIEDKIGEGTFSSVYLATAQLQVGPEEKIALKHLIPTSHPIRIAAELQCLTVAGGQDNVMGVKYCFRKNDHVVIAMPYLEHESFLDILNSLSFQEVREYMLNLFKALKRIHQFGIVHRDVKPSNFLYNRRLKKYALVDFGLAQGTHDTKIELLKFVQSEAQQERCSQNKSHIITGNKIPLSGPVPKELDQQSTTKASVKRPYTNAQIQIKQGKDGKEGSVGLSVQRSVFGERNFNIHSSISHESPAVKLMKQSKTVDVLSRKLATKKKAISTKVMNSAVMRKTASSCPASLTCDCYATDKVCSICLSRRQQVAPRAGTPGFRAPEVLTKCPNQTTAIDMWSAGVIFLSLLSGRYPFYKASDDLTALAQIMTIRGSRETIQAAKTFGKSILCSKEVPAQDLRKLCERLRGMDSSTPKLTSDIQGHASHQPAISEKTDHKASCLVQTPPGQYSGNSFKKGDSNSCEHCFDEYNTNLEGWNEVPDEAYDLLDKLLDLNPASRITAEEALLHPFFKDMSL

| SMILES | IC50 [nM] |
| --- | --- |
| O=C1NCC2(CCCCC2)c2sc(-c3cc[nH]n3)cc21 | 370 |
| Cn1cc(-c2cc3c(s2)C2(CCCCC2)CNC3=O)cn1 | > 25000 |
| CNC(=O)c1cc(-c2cc3c(s2)C2(CCCCC2)CNC3=O)ccn1 | > 25000 |
| CC(=O)Nc1cccc(-c2cc3c(s2)C2(CCCCC2)CNC3=O)c1 | > 25000 |
| O=C1NCC2(CCCCC2)c2sc(-c3cccnc3)cc21 | 5100 |
| O=C1NCC2(CCCCC2)c2sc(Cl)cc21 | > 25000 |

The next compounds have a lower IC50 than those just listed; values first:

| IC50 [nM] | SMILES |
| --- | --- |
| 1 | O=C1CCC2(CCCCC2)c2sc(-c3cn[nH]c3)cc21 |
| 33 | Nc1cc(-c2cc3c(s2)C2(CCCCC2)CCC3=O)ccn1 |
| 9 | O=C1CCC2(CCCCC2)c2sc(-c3ccncc3)cc21 |
| 33 | O=C1NCCc2sc(-c3ccncc3)cc21 |
| 1 | O=C1NCC2(CCCCC2)c2sc(-c3cn[nH]c3)cc21 |
| 1 | O=C1NCC2(CCCCC2)c2sc(-c3ncnc4[nH]cnc34)cc21 |
| 41 | CC(=O)Nc1cc(-c2cc3c(s2)C2(CCCCC2)CNC3=O)ccn1 |
| 8 | Nc1cc(-c2cc3c(s2)C2(CCCCC2)CNC3=O)ccn1 |
| < 1 | O=C1NCC2(CCCCC2)c2sc(-c3ccncc3)cc21 |
